In paper PMC12871559, “A general model for analysis of linear and hyperbolic enzyme inhibition mechanisms” (FEBS Open Bio, 2025):

Assays:
Experiment in all cases: initial rates of NPβglc hydrolysis at […] nm, Lineweaver-Burk replots
Format in all cases: biochemical
Sfβgly [1] = biological target: T1, Sfβgly (Spodoptera frugiperda, UniProt O61594, F251A)
T1 construct: only point mutants assayed here

Sfβgly [2] = biological target: T2, Sfβgly (Spodoptera frugiperda, UniProt O61594, S247Y)
T2 construct: only point mutants assayed here
T2 sequence (O61594 17-509 limits assumed, stated change not applied): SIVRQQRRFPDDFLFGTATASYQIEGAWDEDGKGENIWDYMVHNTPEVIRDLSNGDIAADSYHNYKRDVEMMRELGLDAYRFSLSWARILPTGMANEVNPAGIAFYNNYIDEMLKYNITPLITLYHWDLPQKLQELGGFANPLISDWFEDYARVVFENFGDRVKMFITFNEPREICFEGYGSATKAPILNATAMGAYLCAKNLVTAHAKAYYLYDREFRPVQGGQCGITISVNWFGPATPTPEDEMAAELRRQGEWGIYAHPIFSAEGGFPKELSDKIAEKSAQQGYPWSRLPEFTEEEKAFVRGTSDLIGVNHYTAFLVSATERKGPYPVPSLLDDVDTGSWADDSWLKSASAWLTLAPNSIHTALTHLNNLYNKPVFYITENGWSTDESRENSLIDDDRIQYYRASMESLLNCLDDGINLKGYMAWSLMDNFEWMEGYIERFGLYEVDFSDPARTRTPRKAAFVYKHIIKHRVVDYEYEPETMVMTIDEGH

Sfβgly [3] = biological target: T3, Sfβgly (Spodoptera frugiperda, UniProt O61594, N249Q)
T3 construct: only point mutants assayed here
T3 sequence (O61594 17-509 limits assumed, stated change not applied): as above

Sfβgly [4] = biological target: T4, Sfβgly (Spodoptera frugiperda, UniProt O61594, N249A)
T4 construct: only point mutants assayed here
T4 sequence (O61594 17-509 limits assumed, stated change not applied): as above

T1 sequence (O61594 17-509 limits assumed, stated change not applied): as above

SMILES	Ki (Sfβgly [1])	Ki (Sfβgly [2])	Ki (Sfβgly [3])	Ki (Sfβgly [4])
c1c[nH]cn1 [imidazole]	12 mM	35 mM	39 mM	18 mM
NC(CO)(CO)CO [Tris, 2‐amino‐2‐(hydroxymethyl)‐1,3‐propanediol]	10 mM	71 mM	32 mM	0.6 mM
